Test results taken from patent publication US20210315476A1, “Depth-independent method for in-vivo drug release monitoring and quantification based on magnetic particle imaging” (The Board of Trustees of the Leland Stanford Junior …, priority 2018, published 2021).

Test system: MDA-MB-231 tumors
Experiment: TUNEL assay for tumor apoptosis
Format: in vivo, nude mice
Conditions: tumors harvested 48 h after intratumoral injection, N=3 mice per condition
Method: Furthermore, we evaluated the therapeutic efficacy of Fe3O4@PLGA-DOX to the tumor. Tumor tissues of the orthotopic breast cancer mice were harvested after injection of Fe3O4@PLGA-DOX for 48 h and then sectioned for TUNEL apoptosis assay. […] Meanwhile, the fluorescence signals can also be observed in the tissue section.
MDA-MB-231 tumors on nude mice were harvested and encapsulated in Tissue-Tek® O.C.T. and then frozen. Tumor tissues embedded in were sectioned by cryostat with a thickness of 2 μm for each slice. tissue slices were treated with Click-iT™ Plus TUNEL Assay (Alexa Fluor™ 488 dye) kit for apoptosis detection. Fluorescence images of tumor tissues were captured by fluorescent microscopy. Alexa Fluor™ 488 dye was excited by 488 nm laser and the emission collecting window was 500-540 nm. The signal of DOX were excited by 488 nm laser and emission was collected at 580-630 nm.

COc1cccc2c1C(=O)c1c(O)c3c(c(O)c1C2=O)C[C@@](O)(C(=O)CO)C[C@@H]3O[C@H]1C[C@H](N)[C@H](O)[C@H](C)O1 [DOX, doxorubicin]
apoptosis in tumor section (TUNEL): exhibited apoptosis
